Data from patent publication US20260285853A1, “COMPOUNDS AND METHODS FOR MODULATING SPLICING” (REMIX THERAPEUTICS INC., priority 2023, published 2026).
Counter-ions that a name gives are not always drawn.

Columns and labels:
Assay type in all cases: cell-based
HTT mRNA [1] = assay: Splicing RT-qPCR assay, canonical (CJ) and alternative (AJ) junction mRNA, K562 cells; details: Homo sapiens, K562.3 cells, 24 hours; for AC50: read-out: HTT AJ (AC50, increase in AJ mRNA); for IC50: read-out: HTT CJ (IC50, decrease in CJ mRNA)
Experimental: (§1) Compounds described herein were used to modulate RNA transcript abundance in cells. The expression of a target mRNA was measured by detecting the formation of an exon-exon junction in the canonical transcript (CJ). A compound mediated exon-inclusion event was detected by observing an increase in formation of a new junction with an alternative exon (AJ). Real-time qPCR assays were used to detect these splicing switches and interrogate the potency of various compounds towards different target genes. A high-throughput real time quantitative PCR (RT-qPCR) assay was developed to measure these two isoforms of the mRNA (CJ and AJ) for exemplary genes, such as HTT, SMN2, and MYB, together with a control housekeeping gene, GAPDH or GUSB or PPIA, used for normalization. Briefly, the A673 or K562 cell line was treated with various compounds described herein (e.g., compounds of Formula (I)). After treatment, the levels of the HTT, MYB, or SMN2 mRNA targets were determined from each sample of cell lysate by cDNA synthesis followed by qPCR.
(§2) • Cells-to-CT 1-step kit: ThermoFisher A25602, Cells-to-CT lysis reagent: ThermoFisher 4391851C, TaqMan™ Fast Virus 1-Step Master Mix: ThermoFisher 4444436 • GAPDH: VIC-PL, ThermoFisher 4326317E (Assay: Hs99999905_m1)—used for K562/suspension cell lines • GUSB: VIC-PL, ThermoFisher 4326320E (Assay: Hs99999908_m1)—used for K562/suspension cell lines • PPIA: VIC-PL, ThermoFisher 4326316E (Assay: Hs99999904_m1)—used for A673/adherent cell lines
(§3) The K562 cell line was cultured in IMDM with 10% FBS. For K562, cells were diluted with full growth media and plated in either a 96-well plate (50,000 cells in 50 uL media per well) or a 384-well plate (8,000-40,000 cells in 45 uL media per well). An 11-point 3-fold serial dilution of the compounds were made in DMSO then diluted in media in an intermediate plate. Compound was transferred from the intermediate plate to the cell plate with the top dose at a final concentration of 10 uM in the well. Final DMSO concentration was kept at or below 0.25%. Final volume was 100 uL for 96-well plate and 50 uL for 384-well plate. The cell plate was then placed in an incubator at 37° C. with 5% CO2 for 24 hours.
(§4) The cells were then gently washed with 50 uL-100 uL cold PBS before proceeding to addition of lysis buffer. 30 uL-50 uL of room temperature lysis buffer with DNAse I (and optionally RNAsin) was added to each well. Cells were shaken/mixed thoroughly at room temperature for 5-10 minutes for lysis to take place and then 3 uL-5 uL of room temperature stop solution was added and wells were shaken/mixed again. After 2-5 minutes, the cell lysate plate was transferred to ice for RT-qPCR reaction setup. The lysates could also be frozen at −80° C. for later use.
(§5) In some cases, a direct lysis buffer was used. An appropriate volume of 3× lysis buffer (10 mM Tris, 150 mM NaCl, 1.5%-2.5% Igepal and 0.1-1 U/uL RNAsin, pH 7.4) was directly added to either K562 or A673 cells in media and mixed by pipetting 3 times. The plates were then incubated at room temperature with shaking/rocking for 20-50 minutes to allow for lysis to take place. After this time, the cell lysate plate was transferred to ice to set up for the RT-qPCR reactions. The lysates could also be frozen at −80° C. for later use.
(§6) To set up 10 uL RT-qPCR reactions, cell lysates were transferred to 384-well qPCR plates containing the master mix according to the table below. The plates were sealed, gently vortexed, and spun down before the run. The volumes were adjusted accordingly in some instances where the reaction was carried in 20 uL. The table below summarizes the components of the RT-qPCR reactions:
(§7) The RT-qPCR reaction was performed using a QuantStudio (ThermoFisher) under the following fast cycling conditions. All samples and standards were analyzed at least in duplicate. In some instances, bulk room temperature (RT) step of 5-10 minutes was completed for all plates before proceeding with qPCR. […]

MYB mRNA [2] = assay: as above; details: Homo sapiens, K562.3 cells, 24 hours; for AC50: read-out: MYB AJ (AC50, increase in AJ mRNA); for IC50: read-out: MYB CJ (IC50, decrease in CJ mRNA)
Experimental: as §1, §2, §3, §4, §5, §6, §7

SMN2 mRNA = assay: Gene panel canonical junction qPCR assay, decrease in CJ mRNA, Table 3; details: decrease in canonical junction (CJ) mRNA, gene panel qPCR, Table 3
How it was run: (§8)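 Canonical exon-junction (CJ) transcript measured by 5′ nuclease RT-qPCR, normalized to GAPDH, GUSB or PPIA and to DMSO control (2^(−ΔΔCt)). A673 or K562 cells treated 24 h at 37° C with an 11-point 3-fold dilution series, top 10 uM, DMSO ≤0.25%. IC50 from 4-parameter logistic fit of percentage CJ decrease.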

HTT mRNA [3] = assay: as above; details: decrease in canonical junction (CJ) mRNA, gene panel qPCR, Table 3
How it was run: as §8

MYB mRNA [4] = assay: as above; details: decrease in canonical junction (CJ) mRNA, gene panel qPCR, Table 3
How it was run: as §8

[5] = test system: SH-SY5Y (human neuroblastoma) cells; assay: Cell viability, Cell Titer Glo 2.0 assay; details: read-out: Viability SHSY5Y.3 GI50
How it was run: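 SH-SY5Y cells were exposed to serially diluted compounds in IMDM with 10% FBS and 0.1% DMSO for 72 hours at 37° C., 5% CO2. Viability was measured by CellTiter-Glo 2.0 luminescence, with medium-only wells as blank.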

SMILES	IC50 (HTT mRNA [1]) [nM]	IC50 (MYB mRNA [2]) [nM]	IC50 (SMN2 mRNA) [nM]	IC50 (HTT mRNA [3]) [nM]	IC50 (MYB mRNA [4]) [nM]	GI50 [5] [nM]	AC50 (HTT mRNA [1]) [nM]	AC50 (MYB mRNA [2]) [nM]
Cc1cn2cc(C(=O)Nc3ccc(N4C[C@@H](C)N[C@@H](C)C4)c4cn[nH]c34)cc(F)c2n1 [Compound 215, N-[4-[(3R,5S)-3,5-dimethylpiperazin-1-yl]-1H-indazol-7-yl]-8-fluoro-2-methyl-imidazo[1,2-a]pyridine-6-carboxamide]	> 10000	> 10000	1000 to 10000	> 10000	> 10000	> 10000	> 10000	> 10000
CCNC1CCN(c2ccc(C(=O)Nc3cc(F)c4nc(C)cn4c3)c3[nH]ncc23)CC1 [Compound 266, 4-[4-(ethylamino)piperidin-1-yl]-N-(8-fluoro-2-methyl-imidazo[1,2-a]pyridin-6-yl)-1H-indazole-7-carboxamide]	> 10000	100 to 1000	< 100	> 10000	100 to 1000	1000 to 10000	> 10000	100 to 1000
CCNC1CCN(c2ccc(C(=O)Nc3cn4cc(C)nc4c(F)c3OC)c3[nH]ccc23)CC1 [Compound 171, 4-[4-(ethylamino)piperidin-1-yl]-N-(8-fluoro-7-methoxy-2-methylimidazo[1,2-a]pyridin-6-yl)-1H-indole-7-carboxamide]	> 10000	1000 to 10000	1000 to 10000	> 10000	1000 to 10000	> 10000	> 10000	> 10000
Cc1cn2cc(C(=O)Nc3ccc(N4CCNCC4)c4cn[nH]c34)cc(F)c2n1 [Compound 214, 8-fluoro-2-methyl-N-(4-piperazin-1-yl-1H-indazol-7-yl) imidazo[1,2-a]pyridine-6-carboxamide]	1000 to 10000	> 10000	> 10000	1000 to 10000	> 10000	> 10000	> 10000	> 10000
COc1c(NC(=O)c2ccc(N3CCNCC3)c3cn[nH]c23)cn2cc(C)nc2c1F [Compound 211, N-(8-fluoro-7-methoxy-2-methylimidazo[1,2-a]pyridin-6-yl)-4-(piperazin-1-yl)-1H-indazole-7-carboxamide]	100 to 1000	< 100	< 100	100 to 1000	< 100	100 to 1000	100 to 1000	< 100
CCNC1CCN(c2ccc(C(=O)Nc3cc(F)c4nc(C)cn4c3)c3[nH]ccc23)CC1 [Compound 172, 4-[4-(ethylamino)piperidin-1-yl]-N-(8-fluoro-2-methylimidazo[1,2-a]pyridin-6-yl)-1H-indole-7-carboxamide]	> 10000	> 10000	1000 to 10000	> 10000	> 10000	> 10000	> 10000	1000 to 10000

The next lines start with results.

IC50 (HTT mRNA [1]) [nM]	IC50 (MYB mRNA [2]) [nM]	IC50 (SMN2 mRNA) [nM]	IC50 (HTT mRNA [3]) [nM]	IC50 (MYB mRNA [4]) [nM]	GI50 [5] [nM]	SMILES	AC50 (HTT mRNA [1]) [nM]	AC50 (MYB mRNA [2]) [nM]
1000 to 10000	100 to 1000	< 100	1000 to 10000	100 to 1000	1000 to 10000	COCCN[C@H]1CCN(c2ccc(C(=O)Nc3cc(F)c4nc(C)cn4c3)c3nn(C)cc23)C1 [Compound 112, N-(8-fluoro-2-methyl-imidazo[1,2-a]pyridin-6-yl)-4-[(3S)-3-(2-methoxyethylamino)pyrrolidin-1-yl]-2-methyl-indazole-7-carboxamide]	> 10000	< 100
1000 to 10000	> 10000	100 to 1000	1000 to 10000	> 10000	1000 to 10000	CN[C@H]1C[C@H](C)N(c2ccc(C(=O)Nc3cc(F)c4nc(C)cn4c3)c3nn(C)cc23)C1 [Compound 127, N-(8-fluoro-2-methyl-imidazo[1,2-a]pyridin-6-yl)-2-methyl-4-[(2S,4S)-2-methyl-4-(methylamino)-pyrrolidin-1-yl]indazole-7-carboxamide]	> 10000	> 10000
> 10000	100 to 1000	< 100	> 10000	100 to 1000	100 to 1000	Cc1cn2cc(NC(=O)c3ccc(N4CC[C@H](NCC56CC(CO5)C6)C4)c4cn(C)nc34)cc(F)c2n1 [Compound 125, N-(8-fluoro-2-methyl-imidazo[1,2-a]-pyridin-6-yl)-2-methyl-4-[(3R)-3-(2-oxabicyclo-[2.1.1]hexan-1-ylmethyl-amino)pyrrolidin-1-yl][6.1]-indazole-7-carboxamide]	> 10000	100 to 1000
1000 to 10000	100 to 1000	< 100	1000 to 10000	100 to 1000	1000 to 10000	Cc1cn2cc(NC(=O)c3ccc(N4CCC5NCCCC54)c4cn(C)nc34)cc(F)c2n1 (stereo not drawn) [Compound 100, N-(8-fluoro-2-methylimidazo[1,2-a]pyridin-6-yl)-2-methyl-4-(octahydropyrrolo[3,2-b]pyridin-1-yl)indazole-7-carboxamide]	1000 to 10000	100 to 1000
1000 to 10000	100 to 1000	< 100	1000 to 10000	100 to 1000	1000 to 10000	Cc1cn2cc(NC(=O)c3ccc(N4CC[C@@H]5CNCC[C@@H]54)c4cn(C)nc34)cc(F)c2n1 (stereo in doubt) [Compound 101, N-(8-fluoro-2-methyl-imidazo[1,2-a]-pyridin-6-yl)-2-methyl-4-(octahydro-pyrrolo[3,2-c]-pyridin-1-yl)indazole-7-carboxamide hydrochloride]	1000 to 10000	100 to 1000
1000 to 10000	100 to 1000	< 100	1000 to 10000	100 to 1000	1000 to 10000	Cc1cn2cc(NC(=O)c3ccc(N4CC[C@H](NCCO)C4)c4cn(C)nc34)cc(F)c2n1 [Compound 115, N-(8-fluoro-2-methylimidazo-[1,2-a]-pyridin-6-yl)-4-[(3S)-3-(2-hydroxy-ethylamino)-pyrrolidin-1-yl]-2-methylindazole-7-carboxamide]	1000 to 10000	100 to 1000
